Laboratory results reported in US20080200433A1, “Molecular Chaperone Function Regulator” (priority 2004, published 2008).

Legend:
HSP70 [1] = test: Induction of HSP70 in T-47D cells (Western blot); assay type: cell-based, human; conditions: 10 μM, 9 hr; for HSP70 expression, Experiment 1 (T/C, %): control = 100, Experiment 1; for HSP70 expression, Experiment 2 (T/C, %): control = 100, Experiment 2
Protocol: (Method) T-47D cells were cultured in a 12-well plate and, at the time point when the cells grew to about 70-80%, compounds A, B, C, D, E and F were each added to 10 μM.
(§1) DMSO (0.1%) was added to the control. After the addition, the cells were collected 9 hr later and cell extracts were prepared. Expression of HSP70 protein in the cell extracts was examined by Western blot using an HSP70 specific antibody. T/C (%) was determined using the amount of chemical luminescence on a PVDF film due to an HRP-labeled secondary antibody as the HSP70 expression amount and HSP70 expression amount of the cells in the control well as 100.

ubiquitinated protein = test: Induction of ubiquitinated protein in T-47D cells (Western blot); assay type: cell-based, human; conditions: vs DMSO control (FIG. 7)
Protocol: DMSO (0.1%) was added to the control. After the addition, the cells were collected 1, 3, 6 and 24 hr later and cell extracts were prepared. Expression of ubiquitinated protein in the cell extracts was examined by Western blot using a ubiquitin specific antibody. T/C (%) was determined using the amount of chemical luminescence on a PVDF film due to an HRP-labeled secondary antibody as the ubiquitinated protein expression amount and the expression amount of the cell extract in the control well as 100.

HSP70 [2] = test: Induction of HSP70 in various human tumor-derived cells (Western blot); assay type: cell-based; conditions: TE-8, NCI-H520, HPAC, DU145, KPL-4, MKN-45, HL-60 and DLD-1 cells, 10 μM, 9 hr, vs DMSO control (FIG. 2)
Protocol: (Method) As to the induction of HSP70 by compound A, induction in various human tumor cells was examined.
TE-8 cell, NCI-H520 cell, HPAC cell, DU145 cell, KPL-4 cell, MKN-45 cell, HL-60 cell and DLD-1 cell were each were cultured in a 12-well plate.
DMSO (0.1%) was added to a control well. After the addition, the cells were collected 9 hr later and cell extracts were prepared. Expression of HSP70 protein in the tumor cell extracts was examined by Western blot using an HSP70 specific antibody.

[3] = system: human breast cancer-derived MCF-7 cell; test: Suppressive effect on estradiol (E2)-dependent cell growth (XTT); assay type: cell-based; conditions: 10 nM E2, Day 10, XTT; compound A 0.037-3 μM, tamoxifen 0.062-5 μM (FIG. 4)
Source text: (Method) Using human breast cancer-derived MCF-7 cell that expresses estrogen receptor and grows in response to estradiol (E2, 17β-Estradiol, Cat. #E 1024, Sigma Ltd.), the effect of compound A on the cell growth in the presence of E2 was examined. As the control compound, tamoxifen (Cancer Res., 62, 2474-2477, 2002) (Cat. #T 9262, Sigma Ltd.) known to suppress growth of human breast cancer-derived MCF-7 cell by E2 stimulation was used. MCF-7 cells were suspended in a phenol red non-addition DME-F12 mixed medium containing 5% fetal calf serum treated with activated carbon, and cultured at 2×10^4 cells/well in a 24 well plate. […]
The cell growth activity was measured on Day 10 by the dye method using XTT.
That is, after the completion of the culture, XTT was added to each well and, after color development for 4 hr, the reaction mixture was transferred to a 96 well plate, and the absorbance at 492 nm was measured.
The suppression rate was calculated from the following formula.
Suppression rate (%)={1−[(absorbance of compound addition well in the presence of E2)−(absorbance of control well without E2 addition)]÷[(absorbance of control well in the presence of E2)−(absorbance of control well without E2 addition)]×100

HSP70 [4] = test: Time-dependent HSP70 induction in A-431 cells (Western blot); assay type: cell-based, human; conditions: 10 μM, vs DMSO control (FIG. 1)
Protocol: as §1, with “6, 9, 12 and 24” for “9”

[5] = system: human prostate cancer-derived DU 145 cells; test: Cell growth suppression by combined hyperthermic treatment and compound (XTT); assay type: cell-based; conditions: 0.37-10 μM, 43° C. 4 hr vs 37° C., then 24 hr culture, XTT (FIG. 5)
Protocol: (Method) Using human prostate cancer-derived DU 145 cells, the effect of compound A on the cell growth suppressive action during hyperthermic treatment was examined. DU 145 cells were cultured at 1×10^4 cells/well in two 96 well plates. The next day, compound A was added to each plate to 0.37, 1.1, 3.3 and 10 μM, one plate was incubated for 4 hr in a 5% CO2 incubator set to 43° C. (heat treatment), and the other plate was incubated in the same manner for 4 hr in a 5% CO2 incubator set to 37° C. After 4 hr, the wells were washed 3 times with saline, a growth medium was added and cultured in a 5% CO2 incubator at 37° C. for 24 hr.
The cell growth activity was measured by the dye method using XTT as in Example 4. That is, after the culture, XTT was added to each well and, 4 hr later, the absorbance at 492 nm was measured.
T/C (%) was determined from the following formula with the absorbance of the control well in the plate without the heat treatment as 100.
T/C (%)=[absorbance of heat-treated control well or compound-treated well÷absorbance of control well without heat treatment]×100

[6] = system: client proteins EGFR, HER2, ERα, AR, AKT and CDK4 of HSP90 chaperone; test: Suppressive action on HSP90 client protein expression in MCF-7 cells (Western blot); assay type: cell-based, human; conditions: 10 μM, 24 hr, vs DMSO control (FIG. 3)
Protocol: After the addition of the compound, the cells were collected and divided in two 24 hr later. Cell extracts were prepared from half the cells, and cytoplasmic fraction and nuclear fraction were prepared from the remaining half. […] Expression of client in each tumor cell extract and nuclear fraction was examined by Western blot using an antibody specific to each client.

[7] = system: human breast cancer-derived MCF-7 implanted in nude mouse; test: Antitumor effect on human breast cancer-derived MCF-7 implanted in nude mouse; assay type: in vivo; conditions: 100 mg/kg orally once a day for 2 weeks, vs solvent control, Dunnett's test p<0.05 (FIG. 6)
Protocol: (Method) Human breast cancer-derived MCF-7 cells were subcutaneously implanted in female nude mouse purchased from CLEA Japan, Inc. The effect of compound A on the growth was examined. A 17β-estradiol solution was added dropwise to a small piece of glass microfibre filter GF/B (Whatman, #1821 05) to give a pellet (500 μg/filter). The pellet was subcutaneously implanted in the neck of female Balb/c nude mouse, and MCF-7 cells were subcutaneously implanted in the right back at 5×10^6 cells/mouse. From 7 days after the implantation, compound A was orally administered at 30 mg/kg and 100 mg/kg to nude mice (5 per group) once a day for 2 weeks.
The 0.5% tragacanth solution used as a solvent was similarly administered to the control. The next day of the final administration, the nude mice were sacrificed under anesthesia, and the subcutaneous tumor was isolated and weighed. The mean tumor weight and standard error of each group were calculated, and statistically analyzed by the Dunnett's test and using the solvent administration group as a control.

C=CC(=O)Nc1cc2c(Nc3ccc(F)c(Cl)c3)ncnc2cc1C#CC1(N2CCN(C)CC2)CCOCC1 [E, N-{4-[(3-Chloro-4-fluorophenyl)amino]-7-[4-(4-methyl-1-piperazinyl)-4-tetrahydropyranylethynyl]-6-quinazolinyl}acrylamide]
HSP70 expression, Experiment 1 (T/C, %) (HSP70 [1]): 172%

CC(C)C[C@H](NC(=O)[C@H](Cc1ccccc1)NC(=O)c1cnccn1)B(O)O [bortezomib, reference compound]
amount of ubiquitinated protein (ubiquitinated protein; 3 μM, 1, 3, 6 and 24 hr): remarkably appeared from 3 hr after the treatment

COc1cc2ncnc(Nc3ccc(F)c(Cl)c3)c2cc1OCCCN1CCOCC1 [gefinitib, 4-(3′-Chloro-4′-fluoroanilino)-7-methoxy-6-(3-morpholinopropoxy)quinazoline, reference compound]
HSP70 expression (HSP70 [2]): did not show a clear increase

C=CC(=O)Nc1cc2c(Nc3ccc(F)c(Cl)c3)ncnc2cc1C#CC(C)(C)N1CCN(C)CC1 [compound A]
growth of MCF-7 cells by E2 stimulation [3]: suppresses the growth | expression of HSP70 (HSP70 [4]; 6 hr to 12 hr after treatment): increased in a time-dependent manner | expression of HSP70 (HSP70 [4]; 24 hr after treatment): markedly decreased | cell death due to heat shock [5]: cell death due to heat shock is enhanced | amount of ubiquitinated protein (ubiquitinated protein; 1 μM, 1, 3, 6 and 24 hr): did not occur until after 24 hr | amount of ubiquitinated protein (ubiquitinated protein; 3 μM, 1, 3, 6 and 24 hr): increased from 6 hr after the treatment | amount of ubiquitinated protein (ubiquitinated protein; 10 μM, 1, 3, 6 and 24 hr): increased from 6 hr after the treatment | HSP70 expression, Experiment 1 (T/C, %) (HSP70 [1]): 299% | HSP70 expression, Experiment 2 (T/C, %) (HSP70 [1]): 895% | HSP70 expression (HSP70 [2]): increased | expression of HSP90 client proteins [6]: decreased expression | tumor weight [7]: significantly decreased

CCOc1cc2ncnc(Nc3ccc(F)c(Cl)c3)c2cc1C#CC(C)(C)N(C)C1CCN(C)CC1 [F, (3-Chloro-4-fluorophenyl)-(7-ethoxy-6-{3-methyl-3-[methyl-(1-methyl-4-piperidinyl)amino]-1-butynyl}-4-quinazolinyl)amine]
HSP70 expression, Experiment 1 (T/C, %) (HSP70 [1]): 141%

CC/C(=C(\c1ccccc1)c1ccc(OCCN(C)C)cc1)c1ccccc1 [tamoxifen, reference compound]
growth of MCF-7 cells by E2 stimulation [3]: suppresses the growth

C=CC(=O)Nc1cc2c(Nc3ccc(F)c(Cl)c3)ncnc2cc1C#CC(C)(C)N1CCN(CCOC)CC1 [B, N-([4-(3-Chloro-4-fluorophenyl)amino]-7-{3-[4-(2-methoxyethyl)-1-piperazinyl]-3-methyl-1-butynyl}-6-quinazolinyl)acrylamide]
HSP70 expression, Experiment 2 (T/C, %) (HSP70 [1]): 482%

C=CC(=O)Nc1cc2c(Nc3ccc(F)c(Cl)c3)ncnc2cc1C#CCN1CCN(C)CC1 [C, N-{4-[(3-Chloro-4-fluorophenyl)amino]-7-[3-(4-methyl-1-piperazinyl)-1-propynyl]-6-quinazolinyl}acrylamide]
HSP70 expression, Experiment 1 (T/C, %) (HSP70 [1]): 207%

C=CC(=O)Nc1cc2c(Nc3cccc(C#N)c3)ncnc2cc1C#CC(C)(C)N1CCN(C)CC1 [D, N-{4-[(3-Cyano-phenyl)amino]-7-[3-methyl-3-(4-methyl-1-piperazinyl)-1-butynyl]-6-quinazolinyl}acrylamide]
HSP70 expression, Experiment 2 (T/C, %) (HSP70 [1]): 446%
